Reference: the supplement of paper PMC9386025

These compounds were tested on Kuramochi (assay: drug sensitivity score (DSS) (DSS (dimensionless)); higher = more sensitive (stronger drug response)). Conditions: genetic perturbation: DOX-induced control shRNA.
Outline: (§1)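 Drugs were pre-plated in 384-well plates at five concentrations covering a 10,000-fold range, and 1 000 – 1 500 cells per well were added from patient-derived cultures or from ovarian cancer cell lines whose shRNA had been induced with 100 ng/ml doxycycline for three days or longer. Incubation lasted three days at 37 °C under 5.0 % CO2. A PHERAstar FS then recorded CellTiter-Glo luminescence as the readout of viability. A drug sensitivity score, calculated as described before, summarised the dose-response curve of every drug.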

Structure (SMILES) | drug sensitivity score
CON(C)C(=O)N1N=C(c2cc(F)ccc2F)S[C@@]1(CCCN)c1ccccc1 [Filanesib] | 1.1
CCCCCCCCc1ccc(CCC(N)(CO)CO)cc1 [Fingolimod] | 5
O=c1[nH]c(=O)n([C@H]2C[C@H](O)[C@@H](CO)O2)cc1F [Floxuridine] | 14.1
O=C(NOCCO)c1ccc2cncn2c1Nc1ccc(I)cc1F [GDC-0623] | 1.5
CCOC(=O)CCNc1cc(N2CCc3ccccc3CC2)nc(-c2ccccn2)n1 [GSK-J4] | 7.4
Cc1cc(Nc2cc(CN3CCOCC3)c3nc(C)c(Cc4ccc(Cl)cc4F)n3n2)n[nH]1 [Gandotinib] | 5.6
CC(C)c1cc(-c2n[nH]c(=O)n2-c2ccc3c(ccn3C)c2)c(O)cc1O [Ganetespib] | 1.9
CN(C)C1CCN(C(=O)c2ccc(NC(=O)Nc3ccc(-c4nc(N5CCOCC5)nc(N5CCOCC5)n4)cc3)cc2)CC1 [Gedatolisib] | 10.8
COc1cc2ncnc(Nc3ccc(F)c(Cl)c3)c2cc1OCCCN1CCOCC1 [Gefitinib] | 3.3
Nc1ccn([C@@H]2O[C@H](CO)[C@@H](O)C2(F)F)c(=O)n1 [Gemcitabine] | 0.8
CCN(CC)Cc1ccc2cc(COC(=O)Nc3ccc(C(=O)NO)cc3)ccc2c1 [Givinostat] | 4.8
COc1cc2c(cc1-c1c(C)noc1C)ncc1[nH]c(=O)n([C@H](C)c3ccccn3)c12 [I-BET151] | 3.7
C=CC(=O)N1CCC[C@@H](n2nc(-c3ccc(Oc4ccccc4)cc3)c3c(N)ncnc32)C1 [Ibrutinib] | 1.1
C#Cc1cccc(Nc2ncnc3cc4c(cc23)OCCOCCOCCO4)c1 [Icotinib] | 1.6
CC(=O)[C@]1(O)Cc2c(O)c3c(c(O)c2[C@@H](O[C@H]2C[C@H](N)[C@H](O)[C@H](C)O2)C1)C(=O)c1ccccc1C3=O [Idarubicin] | 6
COc1cc(C(=O)O)ccc1NC(=O)[C@@H]1N[C@@H](CC(C)(C)C)[C@](C#N)(c2ccc(Cl)cc2F)[C@H]1c1cccc(Cl)c1F [Idasanutlin] | < 0
O=C(Nc1ccncc1)C(=O)c1cn(Cc2ccc(Cl)cc2)c2ccccc12 [Indibulin] | < 0
CC(C)NC[C@@H](C(=O)N1CCN(c2ncnc3c2[C@H](C)C[C@H]3O)CC1)c1ccc(Cl)cc1 [Ipatasertib] | < 0

Structure (SMILES) | drug sensitivity score
CC(C)C[C@H](NC(=O)CNC(=O)c1cc(Cl)ccc1Cl)B(O)O [Ixazomib] | 5
CCNCCS(=O)(=O)NC[C@@]1(c2ccccc2)SC(NC(=O)C(C)(C)C)=NN1C(=O)C(C)(C)C [Litronesib] | 3.1
NC(=O)N1CCC(CC(=O)N2CCC([C@H]3c4ncc(Br)cc4CCc4cc(Cl)cc(Br)c43)CC2)CC1 [Lonafarnib] | 8.7
CCNC(=O)c1noc(-c2cc(C(C)C)c(O)cc2O)c1-c1ccc(CN2CCOCC2)cc1 [Luminespib] | 4.1
O=C(Nc1cccc(NC(=O)c2cccc(O)c2O)c1)c1cccc(O)c1O [MST-312] | 8.6
CCN(CC)CCCC(C)Nc1c2ccc(Cl)cc2nc2ccc(OC)cc12 (configuration not stated) [Mepacrine] | 10.8
S=c1[nH]cnc2nc[nH]c12 [Mercaptopurine] | 6.8
CN(Cc1cnc2nc(N)nc(N)c2n1)c1ccc(C(=O)N[C@@H](CCC(=O)O)C(=O)O)cc1 [Methotrexate] | 1.5
CO[C@@H]1[C@H](N(C)C(=O)c2ccccc2)C[C@H]2O[C@]1(C)n1c3ccccc3c3c4c(c5c6ccccc6n2c5c31)C(=O)NC4 [Midostaurin] | 8.9
CNC(=O)c1nn(C)c2c1C(C)(C)Cc1cnc(Nc3ccc(N4CCN(C)CC4)cc3)nc1-2 [Milciclib] | 8
CCCCCCCCCCCCCCCCOP(=O)([O-])OCC[N+](C)(C)C [Miltefosine] | 4.9
O=C1c2c(O)ccc(O)c2C(=O)c2c(NCCNCCO)ccc(NCCNCCO)c21 [Mitoxantrone] | 2.7
CCS(=O)(=O)Nc1ccc(Oc2ccc(F)cc2F)c(-c2cn(C)c(=O)c3[nH]ccc23)c1 [Mivebresib] | 14.7
Nc1ccccc1NC(=O)c1ccc(CNc2nccc(-c3cccnc3)n2)cc1 [Mocetinostat] | 4.1
CCNC(=O)C[C@@H]1N=C(c2ccc(Cl)cc2)c2cc(OC)ccc2-n2c(C)nnc21 [Molibresib] | 4
N#CCNC(=O)c1ccc(-c2ccnc(Nc3ccc(N4CCOCC4)cc3)n2)cc1 [Momelotinib] | 2.1
Cc1cc(OCc2nnc(SC3CCCC3)n2-c2cccnc2)ccc1-c1ccc(S(C)(=O)=O)cc1 [NMS-873] | 6.2

These compounds were tested on OVSAHO in the same assay as above. Conditions: genetic perturbation: DOX-induced PTK7 shRNA knockdown.
Outline: as §1

Structure (SMILES) | drug sensitivity score
CON(C)C(=O)N1N=C(c2cc(F)ccc2F)S[C@@]1(CCCN)c1ccccc1 [Filanesib] | 7.8
CCCCCCCCc1ccc(CCC(N)(CO)CO)cc1 [Fingolimod] | 6.4
O=c1[nH]c(=O)n([C@H]2C[C@H](O)[C@@H](CO)O2)cc1F [Floxuridine] | 4
O=C(NOCCO)c1ccc2cncn2c1Nc1ccc(I)cc1F [GDC-0623] | 0.4
CCOC(=O)CCNc1cc(N2CCc3ccccc3CC2)nc(-c2ccccn2)n1 [GSK-J4] | < 0
Cc1cc(Nc2cc(CN3CCOCC3)c3nc(C)c(Cc4ccc(Cl)cc4F)n3n2)n[nH]1 [Gandotinib] | 6.6
CC(C)c1cc(-c2n[nH]c(=O)n2-c2ccc3c(ccn3C)c2)c(O)cc1O [Ganetespib] | < 0
CN(C)C1CCN(C(=O)c2ccc(NC(=O)Nc3ccc(-c4nc(N5CCOCC5)nc(N5CCOCC5)n4)cc3)cc2)CC1 [Gedatolisib] | 12.7
COc1cc2ncnc(Nc3ccc(F)c(Cl)c3)c2cc1OCCCN1CCOCC1 [Gefitinib] | 7.7
Nc1ccn([C@@H]2O[C@H](CO)[C@@H](O)C2(F)F)c(=O)n1 [Gemcitabine] | 6.1
CCN(CC)Cc1ccc2cc(COC(=O)Nc3ccc(C(=O)NO)cc3)ccc2c1 [Givinostat] | 7.6
COc1cc2c(cc1-c1c(C)noc1C)ncc1[nH]c(=O)n([C@H](C)c3ccccn3)c12 [I-BET151] | 5.7
C=CC(=O)N1CCC[C@@H](n2nc(-c3ccc(Oc4ccccc4)cc3)c3c(N)ncnc32)C1 [Ibrutinib] | 2.9
C#Cc1cccc(Nc2ncnc3cc4c(cc23)OCCOCCOCCO4)c1 [Icotinib] | 0.8
CC(=O)[C@]1(O)Cc2c(O)c3c(c(O)c2[C@@H](O[C@H]2C[C@H](N)[C@H](O)[C@H](C)O2)C1)C(=O)c1ccccc1C3=O [Idarubicin] | 6.8
COc1cc(C(=O)O)ccc1NC(=O)[C@@H]1N[C@@H](CC(C)(C)C)[C@](C#N)(c2ccc(Cl)cc2F)[C@H]1c1cccc(Cl)c1F [Idasanutlin] | 1.1
O=C(Nc1ccncc1)C(=O)c1cn(Cc2ccc(Cl)cc2)c2ccccc12 [Indibulin] | 6.9
